Assay results taken from US8129340B2, “Inhibitors of protein phosphatase 1, GADD34 and protein phosphatase 1/GADD34 complex, preparation and uses thereof” (Institut Gustave Roussy, priority 2006, dated 2012).

Assays:
[1] = system: CT26 colon cancer cells; assay: In vivo anti-cancer vaccination: treated tumour cells in one flank and live tumour cells in opposite flank simultaneously; parameters: species or system BALB/c mice; conditions: cells injected into the flank of Balb/c mice
Description: FIG. 4A: In vivo anti-cancer vaccination depends on CRT. CT26 colon cancer cells were transfected with the indicated siRNAs, then treated with rCRT and/or mitoxantrone (as in FIG. 3D) and the anti-tumour response was measured by simultaneously challenging BALB/c mice with mitoxantrone treated tumour cells in one flank and untreated live tumour cells in the opposite flank.
FIG. 4D: CRT-mediated amelioration of the immune response against etoposide-treated tumour cells. CT26 cells were treated for 24 h with etoposide (or PBS) and rCRT was optionally absorbed to the cell surface (inserts), followed by simultaneous injection of the etoposide ±rCRT-treated tumour cells and live tumour cells in opposite flanks and monitoring of tumour growth.
(§1) Tumours were evaluated weekly, using a caliper.

[2] = system: CT26 tumour cells; assay: Local immune response: tumour cells injected into foot pad, IFN-γ secretion by draining popliteal lymph node cells (ELISA); format: in vivo, Balb/c mice; conditions: cells injected into the foot pad
Description: FIG. 4B: Priming of T cell responses depending on CRT. CT26 tumour cells were left untransfected or transfected with the indicated siRNAs, then treated with medium alone, mitomycin C or mitoxantrone and injected into the right food pad of Balb/c mice. Five days later, mononuclear cells from the draining popliteal lymph nodes were challenged with freeze-thawed CT26 cells, and IFN-γ secretion was assessed at 72 hrs.
FIG. 4C: Exogenous supply of CRT enhances the immunogenicity of CRT-negative dying cells. CT26 cells lacking CRT expression after depletion of CRT with a siRNA and mitoxantrone treatment or after mitomycin treatment were coated with rCRT (inserts) and then injected in the food pad, followed by assessment of the IFN-γ secretion by cells from the draining lymph nodes as in FIG. 4B.
as §1

[3] = system: CT26 cells; assay: Phagocytosis of CT26 tumour cells by dendritic cells (FACS, double positive cells); format: cell-based, BALB/c mice
Description: FIG. 3A, FIG. 3B: Correlation between tumour cell phagocytosis and CRT exposure. Tumour cells labelled with Cell Tracker Green were cultured with CD11c-expressing DC and the percentage of DC taking up tumour cells was determined (A) and correlated with the CRT surface exposure (B), measured as in FIG. 2E.
Mitoxantrone-treated or control cells were incubated with a blocking chicken anti-CRT antibody, followed by detection of phagocytosis by CD.
Cells were transfected with the indicated siRNAs and optionally treated with rCRT, followed by immunoblot (FIG. 3D) detection of surface CRT (FIG. 3E) and phagocytosis by DC (FIG. 3F). Results are triplicates (X±SD) and representative of three independent experiments. * denotes statistically significant differences using the Student t′ test at p<0.001.
BM cells were flushed from the tibias and femurs of BALB/c mice with culture medium composed of RPMI 1640 medium (Invitrogen Life Technologies) supplemented with 10% heat-inactivated FBS (Invitrogen), sodium pyruvate, 50 μM 2-ME (Sigma), 10 mM HEPES (pH 7.4), and penicillin/streptomycin (Invitrogen). After one centrifugation, BM cells were resuspended in Tris-ammonium chloride for 2 min to lyse RBC. After one more centrifugation, BM cells (1×10^6 cells/ml) were cultured in medium supplemented with 100 ng/ml recombinant mouse FLT3 ligand (R&D systems) in 6-well plates (Costar Corning). After 7 days, the non-adherent and loosely adherent cells were harvested with Versene, washed and transferred in 12-well plates (1.5×10^6 cells/plate) for cocultures with tumour cells.
In 12-well plates, […] adherent CT26 cells were labelled with Celltracker Green (Calbiochem) and then incubated with drugs. In some experiments viable CT26 were coated with 2 μg/10^6 cells of chicken anti-CRT antibody (ABR affinity bioreagents) or an isotype control for 30 min prior to washing and feeding to dendritic cells Cs. Alternatively CT26 cells were coated with 2 μg/10^6 cells of rCRT on ice for 30 min and washed twice prior to addition to dendritic cells. Cells were then harvested, washed three times with medium supplemented with FBS and cocultured with immature DC for 2 hours at a ratio of 1:1 and 1:5. At the end of the incubation, cells were harvested with versene, pooled with non-adherent cells present in the supernatant, washed and stained with CD11c-FITC antibody. Phagocytosis was assessed by FACS analysis of double positive cells. Phagocytic indexes refer to the ratio between values obtained at 4° C. and values obtained at 37° C. of co-incubation between DC and tumour cells.

[4] = system: CRT; assay: Biotinylation of cell surface proteins, 2D gel electrophoresis and mass spectrometry; format: cell-based, murine; conditions: CT26 cells, short-term (4 h) treatment, versus untreated
[5] = system: ERP57; assay: Biotinylation of cell surface proteins, 2D gel electrophoresis and mass spectrometry (ERP57 spot); format: cell-based, murine; conditions: CT26 cells, short-term (4 h) treatment
[6] = system: CT26 tumour cells; assay: Anti-tumour vaccination: dying treated CT26 cells injected in one flank, later challenge with live tumour cells; format: in vivo, BALB/c mice
[7] = system: CRT; assay: CRT exposure on tumour cell lines of human origin (HeLa, A549, HCT116); format: cell-based
[8] = system: CT26 tumours; assay: Intratumoural treatment of established CT26 tumours in immunodeficient mice; format: in vivo, athymic nu/nu Balb/c mice; conditions: single intratumoural injection
[9] = system: CRT; assay: CRT exposure on tumour cell lines of murine origin (MCA205, B16F10, J558); format: cell-based
[10] = system: cell surface CRT; assay: Fluorescence detection of cell surface CRT on CT26 cells (cytofluorometry); format: cell-based, murine; conditions: agent alone
Description: FIG. 1SA, FIG. 1SB: Kinetics of CRT exposure. CT26 cells were treated with mitoxantrone for the indicated period, followed by immunofluorescence staining with a CRT-specific antibody and cytofluorometric analysis.
FIG. 2E: Correlation between CRT exposure and immunogenicity. The surface exposure of CRT was determined by immunofluorescence cytometry while gating on viable (propidium iodine-negative) cells (inserts) and was correlated with the immunogenicity of cell death (as determined in FIG. 1). CO, control; Tg, thapsigargin; Tu, tunicamycin.
FIG. 5E: Kinetics of CRT exposure determined by FACS analysis after incubation of cells with the indicated agents.
FIG. 5F-FIG. 5G: PP1/GADD34 inhibitors render cell immunogenic via CRT. Tumour cells were first transfected with a control siRNA or a CRT-specific siRNA and then treated in vitro with etoposide, alone or in combination with PP1/GADD34 inhibitors. […] The results represent the % of tumour free mice (comprising a total of 12 to 18 mice per group).
CT26 cells (on a glass slide or in 12-well plates) were first washed with FACS buffer (1×PBS, 5% fetus bovine serum, and 0.1% sodium azide) and then incubated with rabbit anti-mouse CRT antibody (1:100, Stressgen) in FACS buffer at 4° C. for 30 min. Cells reacted with anti-rabbit IgG (H+L) Alexa fluor 488-conjugates (1:500) in FACS buffer at 4° C. for 30 min. After washing three times with FACS buffer, surface CRT was detected by cytofluorometric analysis on a FACS Vantage. In some experiments, cells were fixed with 4% paraformaldehyde, counterstained with Hoechst (2 μM; Sigma), followed by fluorescence microscopic assessment with a Leica IRE2 microscope equipped with a DC300F camera.

[11] = system: CT26 tumours; assay: Intratumoural treatment of established CT26 tumours in immunocompetent mice; format: in vivo, BALB/c mice (wild type)
[12] = system: calreticulin; assay: Calreticulin exposure by immunofluorescence staining and flow cytometry, HCT116 cells; format: cell-based, human; conditions: 2 hours
Description: (§2) HCT116 cells (FIG. 7A) or CT26 cells (FIG. 7B) were cultured in complete mediums supplemented with 10% fetal calf serum alone or in the presence of the control peptide (VKKKKIKREIKI-lkaravafsekv) (SEQ ID NO: 17) or the PP1/GADD34 inhibitory peptide (VKKKKIKREIKI-lkarkvrfsekv, SEQ ID NO: 4. denominated PP1 peptide) for 2 hours. Cells were washed twice with PBS and fixed in PFA (4% w/v) for 5 min. Cells were stained with an antibody against calreticulin (pAb from Abeam, ab2907) at 1:200 dilution or isotype control, in staining buffer (PBS, 1% FCS) for 30 min on ice, followed by washing. An anti-rabbit Alexa fluor 488 immunoglobulin conjugate (Molecular Probes-Invitrogen) diluted at 1:500 was added for an additional 30 min on ice before washing and analysed by flow cytometry (FACScan, Becton Dickinson). Propidium Iodide (50 μg/ml, Becton Dickinson) was added to the samples to label and exclude permeabilized (dead) cells.

[13] = system: calreticulin; assay: Calreticulin exposure by immunofluorescence staining and flow cytometry, CT26 cells (peptide test); format: cell-based, murine; conditions: 2 hours
Description: as §2

[14] = system: CT26 colon cancer; assay: Intratumoural peptides with systemic mitomycin C against established CT26 colon cancer (tumor size, survival); format: in vivo, BALB/c mice; conditions: 10 micrograms peptide in situ plus systemic mitomycin C
Description: CT26 cells were injected se in BALB/c mice. At a size of 20 mm^2, the palpable tumors were directly inoculated in situ with 10 micrograms of either of the three following peptides (see below) alone or together with a systemic treatment with mitomycin C (as described in Obeid et al. Nat Med 2007) or PBS. • 1. Cell-penetrable PP1 inhibitory peptide VKKKKIKREIKI-LKARKVRFSEKV (SEQ ID NO: 4) • 2. Cell-penetrable control peptide VKKKKIKREIKI-LKARAVRFSEKV (SEQ ID NO: 18) • 3. Cell penetration sequence VKKKKIKREIKI (SEQ ID NO: 3) alone admixed together with PP1-inhibitory peptide LKARKVRFSEKV (SEQ ID NO: 2) alone.
5 animals/group were included in this experiment.

What does the source list for “5′-rCrCrGrCUrGrGrGUrCrGrArAUrCrRrArATT-3′ [CRT-specific siRNA]”?
immunogenicity of mitoxantrone-treated CT26 cells (efficacy of anti-tumour vaccination) [1]: compromised the immunogenicity of mitoxantrone-treated CT26 cells; immunogenicity of mitoxantrone-treated CT26 cells (interferon-γ production by T cells from popliteal lymph node) [2]: compromised the immunogenicity of mitoxantrone-treated CT26 cells; phagocytosis of anthracyclin-treated tumour cells by DC after siRNA knockdown of CRT ([3]; cells transfected with siRNA): suppressed the phagocytosis of anthracyclin-treated tumour cells

For `COc1cccc2c1C(=O)c1c(O)c3c(c(O)c1C2=O)C[C@@](O)(C(=O)CO)C[C@@H]3O[C@H]1C[C@H](N)[C@H](O)[C@H](C)O1` [doxorubicin], which “induction of surface CRT (factor)” value [4] is on record?
The value was 6.

And the “surface exposure of ERP57” value [5]?
The value was “specifically induced”.

What about the “immunogenicity of cell death (protection against tumour growth, anti-tumour vaccination)” value ([6]; dying CT26 cells treated with agent injected into one flank, live tumour cells in opposite flank 8 days later) of the same compound?
Its value is “elicited immunogenic cell death”.

And the “phagocytosis of drug-treated tumour cells by DC” value ([3]; within a few hours after treatment)?
Its value is “acquired the property to be phagocytosed by DC quickly”.

With `O=C(/C=C/c1ccccc1)NC(NC(=S)Nc1cccc2cccnc12)C(Cl)(Cl)Cl` (stereo not shown) [salubrinal] as the compound, how does the “CRT exposure on human tumour cell lines” value [7] read?
The value was “induced CRT exposure”.

What about the “therapeutic effect of single agent on established tumours, nu/nu mice” value [8] of the same compound?
The value was “no major therapeutic effect”.

What about the “CRT exposure on murine tumour cell lines” value [9] of the same compound?
The value was “induced CRT exposure”.

And the “induction of CRT exposure at the cell surface” value [10]?
The value was “efficiently induced”.

And the “therapeutic effect combined with a cell death inducer (etoposide or mitomycin C), immunocompetent mice” value ([11]; intratumoural injection with etoposide or mitomycin C)?
Its value is “stable disease or complete tumour regression”.

And the “therapeutic effect of single agent on established tumours, immunocompetent mice” value ([11]; single intratumoural injection, 14-day-old CT26 tumours)?
Its value is “no major therapeutic effect”.

What about the “induction of immunogenic cell death by the inhibitor alone” value ([6]; without cell death inducer) of the same compound?
The value was “not sufficient to induce immunogenic cell death”.

“VKKKKIKREIKI-LKARKVRFSEKV (VKKKKIKREIKILKARKVRFSEKV; Artificial sequence including a fragment of GADD34 and a translocation motif.) [SEQ ID NO:4, fragment of GADD34 fused to a plasma membrane translocation motif]” was tested. Which “exposure of calreticulin, HCT116 cells” value [12] did it give?
The value was “capable of inducing the exposure of calreticulin”.

And the “exposure of calreticulin, CT26 cells” value [13]?
The value was “capable of inducing the exposure of calreticulin”.

What about the “therapeutic effect of combination with mitomycin C” value [14] of the same compound?
Its value is “synergistic therapeutic effects”.

Which results are given for “VKKKKIKREIKI-lkaravafsekv (VKKKKIKREIKILKARAVAFSEKV; Artificial sequence including a fragment of GADD34 and a translocation motif) [mutant control peptide]”?
exposure of calreticulin, HCT116 cells [12]: did not induce calreticulin exposure; exposure of calreticulin, CT26 cells [13]: did not induce calreticulin exposure
